From patent US20220096508A1, “METHOD OF TREATMENT AND PHARMACEUTICAL DOSAGE FORM” (Aprea Therapeutics AB, priority 2019, published 2022)
Where two headings read alike, the source gives them in different places.

System: TP53 mutant myeloid neoplasms
From the text: The study, identified as NCT03072043 on clinicaltrials.gov, is a multi-institution, open-label, phase Ib/II clinical trial conducted in 2 parts: a Phase 1 b part followed by a Simon's two-stage Phase 2 design. The study assesses the safety and efficacy of APR-246 in combination with azacitidine for the treatment of TP53 mutant myeloid neoplasms. All patients were pre-screened by NGS on peripheral blood (PB) or bone marrow (BM) samples to determine TP53 mutational status and therefore eligibility to participate in this study. A PB sample was obtained prior to treatment for NGS by a central laboratory, to evaluate baseline TP53 VAF and for serial analysis.
Treatment was administered on an outpatient basis. No investigational or commercial agents or therapies other than those described were administered with the intent to treat the patient's MDS or MDS/MPN. APR-246 was supplied by Aprea Therapeutics AB. The investigational medicinal product was a concentrate for solution, diluted with sterile 0.9% NaCl solution for infusion before administration. The solution for infusion was prepared with the prescribed dosage for each patient in accordance with the protocol and separate technical instruction.
The initial Phase 1 b part evaluated APR-246 administered with azacitidine. Cohorts of at least 3 evaluable patients were enrolled using a modified 3+3 design. Patients received IV infusions of APR-246 as a lead-in phase on days −14 to −11, starting at Dose Level 1 (see below and in Table 1) prior to starting cycle #1 of combination therapy with azacitidine (see FIG. 1) In all cycles, APR-246 was administered as a 6-hour infusion daily for four consecutive days (study days −14 to −11 of the lead in phase and day 1 to 4 of each combination cycle). • Dose Level 1 (starting dose): APR-246 21.0 mg/kg LBM (for the first 45 min)+29 mg/kg LBM (for 5 h 15 min) on days 1 to 4. • Dose Level 2: APR-246 30.0 mg/kg LBM (for first 45 min)+45.0 mg/kg LBM (for 5 h 15 min) on days 1 to 4. • Dose Level 3: APR-246 37.0 mg/kg LBM (for first 45 min)+63.0 mg/kg LBM (for 5 h 15 min) on days 1 to 4.
Thus, the combination therapy consisted of APR-246 on days 1-4 and azacitidine on days 4-10 of a 28-day cycle. Azacitidine was administered subcutaneously (SC) or intravenously (SC being preferred) at 75 mg/m^2 for 7 days (either for 7 consecutive days (days 4-10) or on 2+5 days (i.e. days 4-5 and 8-12)). Azacitidine was administered on day 4 at the same time as the final infusion of APR-246. Azacitidine was given following the completion of APR-246 infusion. Cohorts of at least 3 evaluable patients were enrolled using a modified 3+3 design. Patients were followed for at least 6 weeks (lead-in phase+cycle 1) before decision to dose escalation in the next cohort following a full safety assessment. The MTD was defined as the dose level below which DLT is manifested in 33% of the patients or at dose level 1 if DLT is manifested in <33% of the patients.
Following completion of the dose finding phase described above, a dose expansion was carried out, whereby patients are treated with APR-246 administered at the MTD with azacitidine on a 28-day cycle with the same dosing schedule as in Phase Ib, with the exception of no lead in phase (i.e. patients will start at day 1 of combination therapy with APR-246 on days 1˜4 and azacitidine on days 4-10 (or days 4-5 and 8-12) of a 28-day cycle as illustrated in FIG. 1), and the exception that the recommended Phase 2 dose was modified from 100 mg/kg LBM to a fixed dose regimen of 4500 mg/patient (i.e. APR-246 administration in 2 consecutive steps as a loading dose (1500 mg for first 45 min) and a maintenance dose (3000 mg for 5 h 15 min)).

[1] = MDS population (n=40), combination with azacitidine
[2] = protocol-defined efficacy evaluable MDS population (n=33), combination with azacitidine

With `COCC1(CO)C(=O)C2CCN1CC2` (stereo not drawn) [APR-246, 2-hydroxymethyl-2-methoxymethyl-1-azabicyclo [2,2,2] octan-3-one] the “patients able to discontinue therapy and proceed to allogeneic SCT” value (MDS patients, combination with azacitidine) was 40%, the CR rate [1] was 50% and the ORR [1] was 73%. The “patients able to discontinue therapy and proceed to allogeneic SCT” value (efficacy evaluable MDS patients, combination with azacitidine) was 48%, the “recommended Phase 2 dose” value (human, in vivo) was 100 mg/kg lean body weight and the “patients who achieved CR, Stage 1” value (of 24 evaluable patients at the MTD, combination with azacitidine) was “More than 6”. The “patients who achieved CR, Stage 2” value (of 45 evaluable patients, combination with azacitidine) was “More than 14”, the CR [2] was 61% and the ORR [2] was 88%.
